Data taken from the supplement of paper PMC11451515.

Test system: P12-Ichikawa
Test: cell viability relative to DMSO control; higher = less cytotoxic
Conditions: 48 h
Summary of the method: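 Viability is expressed as a percentage of DMSO wells within each plate, and cell-free wells serve as background. Seeding densities in the 1536-well plates (5 μl) were 500 cells/well for NOMO1 or SEM leukemia cells and 1000 cells/well for P12-Ichikawa. Each line was adapted for at least four passages in each medium. Library compounds in DMSO were pin-dosed at 47 μM to 0.79 nM (11 points, threefold), and CellTiter-Glo One luminescence was read after 48 h at 37°C.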

[1] = HPLM + 10% dialyzed FBS, 0.000781 µM
[2] = HPLM + 10% dialyzed FBS, 0.00234 µM
[3] = HPLM + 10% dialyzed FBS, 0.00702 µM
[4] = HPLM + 10% dialyzed FBS, 0.0211 µM
[5] = HPLM + 10% dialyzed FBS, 0.0632 µM
[6] = HPLM + 10% dialyzed FBS, 0.19 µM
[7] = HPLM + 10% dialyzed FBS, 0.569 µM
[8] = HPLM + 10% dialyzed FBS, 1.71 µM
[9] = HPLM + 10% dialyzed FBS, 5.12 µM
[10] = HPLM + 10% dialyzed FBS, 15.4 µM
[11] = HPLM + 10% dialyzed FBS, 46.1 µM
[12] = RPMI 5 mM glucose + 10% FBS, 0.000781 µM
[13] = RPMI 5 mM glucose + 10% FBS, 0.00234 µM
[14] = RPMI 5 mM glucose + 10% FBS, 0.00702 µM
[15] = RPMI 5 mM glucose + 10% FBS, 0.0211 µM
[16] = RPMI 5 mM glucose + 10% FBS, 0.0632 µM
[17] = RPMI 5 mM glucose + 10% FBS, 0.19 µM
[18] = RPMI 5 mM glucose + 10% FBS, 0.569 µM
[19] = RPMI 5 mM glucose + 10% FBS, 1.71 µM
[20] = RPMI 5 mM glucose + 10% FBS, 5.12 µM
[21] = RPMI 5 mM glucose + 10% FBS, 15.4 µM
[22] = RPMI 5 mM glucose + 10% FBS, 46.1 µM
[23] = RPMI 5 mM glucose + 10% dialyzed FBS, 0.000781 µM
[24] = RPMI 5 mM glucose + 10% dialyzed FBS, 0.00234 µM
[25] = RPMI 5 mM glucose + 10% dialyzed FBS, 0.00702 µM
[26] = RPMI 5 mM glucose + 10% dialyzed FBS, 0.0211 µM
[27] = RPMI 5 mM glucose + 10% dialyzed FBS, 0.0632 µM
[28] = RPMI 5 mM glucose + 10% dialyzed FBS, 0.19 µM
[29] = RPMI 5 mM glucose + 10% dialyzed FBS, 0.569 µM
[30] = RPMI 5 mM glucose + 10% dialyzed FBS, 1.71 µM
[31] = RPMI 5 mM glucose + 10% dialyzed FBS, 5.12 µM
[32] = RPMI 5 mM glucose + 10% dialyzed FBS, 15.4 µM
[33] = RPMI 5 mM glucose + 10% dialyzed FBS, 46.1 µM

SMILES	cell viability [1]	cell viability [2]	cell viability [3]	cell viability [4]	cell viability [5]	cell viability [6]	cell viability [7]	cell viability [8]	cell viability [9]	cell viability [10]	cell viability [11]	cell viability [12]	cell viability [13]	cell viability [14]	cell viability [15]	cell viability [16]	cell viability [17]	cell viability [18]	cell viability [19]	cell viability [20]	cell viability [21]	cell viability [22]	cell viability [23]	cell viability [24]	cell viability [25]	cell viability [26]	cell viability [27]	cell viability [28]	cell viability [29]	cell viability [30]	cell viability [31]	cell viability [32]	cell viability [33]
COc1ccc(C2CNC(=O)C2)cc1OC1CCCC1 (stereo unspecified)	88.6%	100%	102%	99%	109%	105%	107%	108%	105%	99%	102%	89%	106%	91.7%	99%	101%	96.7%	105%	103%	98.4%	102%	93%	84.8%	97.6%	89.7%	103%	95.6%	97.2%	92.4%	106%	106%	109%	99%
CCOC(=O)\C1=C(/C)N\C2=C(C1C3=CC=C(C=C3)C4=CC=CC=C4)\C(=O)CC(C)(C)C2 (stereo unspecified)	119%	112%	123%	110%	119%	110%	109%	107%	108%	108%	103%	108%	104%	117%	117%	115%	99.8%	109%	103%	102%	95.3%	113%	112%	118%	116%	114%	111%	101%	104%	101%	107%	98.9%	95.3%
O=C(Nc1ccc(F)c(C(F)(F)F)c1)Nc1nnc(-c2ccncc2)s1	125%	121%	119%	115%	129%	112%	120%	115%	119%	111%	100%	113%	127%	125%	109%	112%	114%	114%	118%	113%	111%	99.5%	115%	121%	129%	113%	123%	120%	127%	115%	114%	106%	113%
CC(N)C12CC3CC(CC(C3)C1)C2 (stereo unspecified)	105%	108%	111%	117%	124%	109%	111%	114%	110%	99.1%	8.72%	103%	113%	101%		123%	118%	112%	112%	111%	117%	13.2%	105%	106%	115%	101%	112%	110%	108%	125%	108%	105%	18.8%
